What was measured:
Type in all cases: cell-based
USP7 = target: T1, USP7 (Homo sapiens, UniProt Q93009); assay: DUB activity of USP7 immunoprecipitated from pulse-treated Jurkat cells (Ub-EKL assay); conditions: Jurkat cells pulse treated with 10 μM-0.1 μM for 2 hours, FIG. 4A-4B
T1 construct: followed by DUB activity measurement of immunoprecipitated USP7; endogenous in cells; host or cells: Jurkat cells
Method: Jurkat cells were pulse treated with doses ranging from 10 μM-0.1 μM of compound 1 or DMSO as vehicle control for 2 hours followed by DUB activity measurement of immunoprecipitated USP7 (FIG. 4A) as well as total cell lysate (FIG. 4B) using Ub-EKL assay (U.S. Pat. No. 8,680,139). A portion of the immunoprecipitated USP7 is separated on 10% SDS-PAGE and immunoblotted with anti-USP7 antibody to detect the level of USP7 protein (shown at the top of graphs in FIG. 4A).

DNMT1, UHRF1 and HDM2 = assay: Immunoblot of USP7 oncogenic substrate levels in Jurkat cells; conditions: 20 μg total cell lysate, FIG. 5
Method: FIG. 5 graphically illustrates a decrease in USP7 oncogenic substrates DNMT1, UHRF1 and HDM2 levels in Jurkat cells treated with the USP7i compound 1. 20 μg total cell lysates from each sample was separated on 10% SDS-PAGE and immunoblotted with antibodies against DNMT1, UHRF1, HDM2 and Actin (loading control).

Murine Tregs = assay: Treg suppression assay with CFSE labeled T effector cells (FACS); conditions: Murine Tregs pre-treated for 2 hours, washed, incubated with CFSE labeled T effector cells for 3 days; FIG. 6
Method: Murine Tregs were pre-treated with compound 1 for 2 hours, washed and incubated with carboxyfluorescein succinimidyl ester (CFSE) labeled T effector cells at varying concentrations for 3 days. T effector cell proliferation was monitored using FACS analysis. Percentage proliferation is plotted using Graphpad prism.

T1 sequence (Q93009 whole entry): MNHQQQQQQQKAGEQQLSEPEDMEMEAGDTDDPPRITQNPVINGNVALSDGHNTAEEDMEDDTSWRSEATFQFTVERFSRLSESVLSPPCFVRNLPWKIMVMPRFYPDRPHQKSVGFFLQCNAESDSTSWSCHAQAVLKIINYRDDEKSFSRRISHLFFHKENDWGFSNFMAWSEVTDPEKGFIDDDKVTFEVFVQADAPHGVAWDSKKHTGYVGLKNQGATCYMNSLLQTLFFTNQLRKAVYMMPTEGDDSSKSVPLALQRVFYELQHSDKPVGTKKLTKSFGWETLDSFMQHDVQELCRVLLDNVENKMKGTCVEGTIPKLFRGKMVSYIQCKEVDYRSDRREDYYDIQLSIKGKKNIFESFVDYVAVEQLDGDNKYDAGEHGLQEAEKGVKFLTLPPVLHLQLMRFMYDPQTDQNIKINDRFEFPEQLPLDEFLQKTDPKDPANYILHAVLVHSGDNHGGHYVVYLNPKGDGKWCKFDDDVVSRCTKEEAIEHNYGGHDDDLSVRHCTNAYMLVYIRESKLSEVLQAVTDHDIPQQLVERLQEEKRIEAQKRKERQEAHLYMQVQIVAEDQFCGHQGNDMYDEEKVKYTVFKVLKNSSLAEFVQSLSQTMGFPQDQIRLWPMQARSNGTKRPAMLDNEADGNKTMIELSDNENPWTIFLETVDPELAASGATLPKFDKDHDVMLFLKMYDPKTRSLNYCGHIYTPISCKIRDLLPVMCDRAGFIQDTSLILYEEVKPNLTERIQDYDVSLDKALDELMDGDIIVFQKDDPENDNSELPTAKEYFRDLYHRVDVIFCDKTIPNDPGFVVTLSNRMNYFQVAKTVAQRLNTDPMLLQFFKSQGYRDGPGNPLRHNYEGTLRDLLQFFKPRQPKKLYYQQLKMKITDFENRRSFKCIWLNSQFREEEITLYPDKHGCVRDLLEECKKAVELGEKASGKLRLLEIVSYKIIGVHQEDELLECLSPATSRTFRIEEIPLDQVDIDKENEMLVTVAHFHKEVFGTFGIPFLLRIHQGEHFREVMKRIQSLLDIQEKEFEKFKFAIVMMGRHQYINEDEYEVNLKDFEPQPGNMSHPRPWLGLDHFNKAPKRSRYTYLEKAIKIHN

mode of USP7 inhibition (DUB activity of immunoprecipitated USP7 after pulse treatment) (USP7): irreversible inhibitors
SMILES: O=C(Nc1ccc2c(c1)S(=O)(=O)C=C2)c1nnc(Sc2c(Cl)cncc2Cl)s1 [compound 1, 5-((3,5-dichloropyridin-4-yl)thio)-N-(1,1-dioxido-2,3-benzo[b]thiophen-6-yl)-1,3,4-thiadiazole-2-carboxamide]
USP7 oncogenic substrates DNMT1, UHRF1 and HDM2 levels (DNMT1, UHRF1 and HDM2): decrease
Treg functions (T effector cell proliferation) (Murine Tregs): inhibition of Treg functions
